Reference: patent US12624057B2, “Bisphosphonate quinolone conjugates and uses thereof” (BIOVINC, LLC, priority 2016, dated 2026)

What was measured:
[1] = system: S. aureus ATCC6538 biofilms; experiment: Survival of S. aureus biofilm on pretreated, rinsed HA discs; assay type: cell-based, Staphylococcus aureus; conditions: for times more active than ciprofloxacin alone in achieving complete bactericidal action: allowing for molecular mass; for ability to prevent biofilm formation on pretreated HA (in words): pretreated HA discs; for concentration that inhibited all biofilm growth: pretreated, rinsed HA discs
Description: HA discs incubated in DMSO or phosphate buffer served as control samples. Next, discs were rinsed 3 times with sterile water. After rinsing, 2 mL of 0.5 MF of. S. aureus ATCC6538 were introduced to wells containing HA discs as a substrate for biofilm development and biofilms were formed as before.

[2] = system: biofilms of P. aeruginosa strain ATCC-15442; experiment: Preformed biofilms on polystyrene, P. aeruginosa; assay type: cell-based, Pseudomonas aeruginosa; conditions: polystyrene substrate, tested range of concentrations
Description: (§1) Antimicrobial susceptibility testing of BP-ciprofloxacin against preformed biofilms of S. aureus strain ATCC-6538 and P. aeruginosa strain ATCC-15442: Strains cultured on appropriate agar plates (Columbia agar plate for S. aureus; MacConkey agar plate for P. aeruginosa) were transferred to liquid microbiological media and incubated for 24 h/37° C. under aerobic conditions. After incubation, strains were diluted to the density of 1 MF. The microbial dilutions were introduced to wells of 24-well plates containing HA discs as a substrate, or simply to polystyrene wells where the bottom surface of the wells served as the substrate for biofilm development. Strains were incubated at 37° C. for 4 hrs. Next, the microbe-containing solutions were removed from the wells. The surfaces, HA discs and polystyrene plates, were gently rinsed to leave adhered cells and to remove planktonic or loosely-bound microbes. Surfaces prepared in this manner were immersed in fresh TSB medium containing 0.24-125 mg/L of BP-ciprofloxacin conjugate. After 24 hrs of incubation at 37° C. the surfaces were rinsed using physiological saline solution and transferred to 1 mL of 0.5% saponin (Sigma-Aldrich, St Louis, MO). The surfaces were vortex-mixed vigorously for 1 minute to detach cells. Subsequently, all microbial suspensions were diluted 10 to 10^9 times. Each dilution ([…]) was cultured on the appropriate stable medium (MacConkey, Columbia for P. aeruginosa and S. aureus, respectively) and incubated at 37-C for 24 hours. After this time, the microbial colonies were counted and the number of cells forming biofilm was assessed. […]
(§2) Antimicrobial susceptibility testing of 6 against preformed biofilms of S. aureus strain ATCC-6538 and P. aeruginosa strain ATCC-15442: Strains cultured on appropriate agar plates (Columbia agar plate for S. aureus; MacConkey agar plate for P. aeruginosa) were transferred to liquid microbiological media and incubated for 24 hrs/37° C. under aerobic conditions. […] After this time, the microbial colonies were counted and the number of cells forming biofilm was assessed. […]

[3] = system: S. aureus strain ATCC-6538 (MSSA) and clinical MRSA strain MR4-CIPS; experiment: Time-kill assay (CLSI); assay type: cell-based, Staphylococcus aureus; conditions: for time-kill profile (in words): 1× and ½× MIC, 24 hrs
Description: Time-kill assay for BP-ciprofloxacin conjugate against S. aureus strain ATCC-6538 (MSSA) and clinical MRSA strain MR4-CIPS: This experiment was performed in the same manner as described previously under the subheading: “Evaluation of MIC of tested compounds against planktonic forms of clinical staphylococcal strains analyzed”, but absorbance assays (at 580 nm wavelength) were taken in hour: 0, 1, 2, 4, 8, 16, 24.

[4] = system: biofilms of S. aureus strain ATCC-6538; experiment: Preformed biofilms on polystyrene, S. aureus; assay type: cell-based, Staphylococcus aureus
Description: as §1, §2

[5] = 24 hrs of growth (Examples 5, 6)

| SMILES | times more active than ciprofloxacin alone in achieving complete bactericidal action [1] | times more active than ciprofloxacin alone in achieving complete bactericidal action ([1]; listed as BP-ciprofloxacin) | ability to prevent biofilm formation on pretreated HA (in words) [1] | ability to prevent biofilm formation on pretreated HA (in words) ([1]; listed as BCC) | concentration that inhibited all biofilm growth ([1]; 24 hrs of growth (Example 1)) [µg/mL] | concentration that inhibited all biofilm growth [1, 5] [µg/mL] | MBIC50 [2] | MBIC90 [2] | MBIC50 ([2]; listed as BP-ciprofloxacin) | time-kill profile (in words) [3] | time-kill profile (in words) ([3]; listed as BP-ciprofloxacin) | time to bactericidal activity / evident prevention of growth ([3]; at half the MIC) [h] | growth inhibition ([3]; at half the MIC, up to/after 24 hrs, versus controls) [%] | time to bactericidal activity / evident prevention of growth ([3]; at half the MIC, listed as conjugate) [h] | time to bactericidal activity ([3]; at the established MIC) [h] | prevention of bacterial growth ([3]; at the established MIC, up to 24 hrs) [%] | minimal biofilm inhibitory concentration (MBIC50) ([4]; polystyrene substrate (Example 1)) [µg/mL] | minimal biofilm inhibitory concentration (MBIC50) ([4]; polystyrene substrate (Example 5)) [µg/mL] | MBIC90 ([4]; polystyrene substrate, tested range of concentrations) |
| --- | --- | --- | --- | --- | --- | --- | --- | --- | --- | --- | --- | --- | --- | --- | --- | --- | --- | --- | --- |
| O=C(O)c1cn(C2CC2)c2cc(N3CCN(C(=O)Oc4ccc(CC(P(=O)(O)O)P(=O)(O)O)cc4)CC3)c(F)cc2c1=O [Compound 6, 1-cyclopropyl-7-(4-((4-(2,2-diphosphonoethyl)phenoxy)carbonyl)piperazin-1-yl)-6-fluoro-4-oxo-1,4-dihydroquinoline-3-carboxylic acid] | 20 | 20 | superior antimicrobial activity | inhibited | 10 | 10 | No MBIC50 was observed | no MBIC90 was observed for either pathogen | no MBIC^50 was observed | sustained bactericidal activity over 24 hrs | strong bactericidal activity at 1 hr and up to 24 hrs | 2 | 50 | ≤ 1 | ≤ 1 | 100 | 15.6 to 31.2 | 15.6 to 31.2 | no MBIC90 was observed for either pathogen |
| O=C(O)c1cn(C2CC2)c2cc(N3CCNCC3)c(F)cc2c1=O [ciprofloxacin, reference compound] |  |  |  |  | 100 | 100 |  |  |  |  |  |  |  |  |  |  |  |  |  |
